Values after ≈ are worked out from the molar mass of the structure shown. Like-named read-outs stand apart in the source and are kept apart here.
What was measured:
[1] = test system: Enterococcus faecalis ATCC29121; type: cell-based; settings: for Minimal inhibitory concentration (MIC) E. faecalis ATCC29121: ATCC29121, 24 h; for Minimal bactericidal concentration (MBC) E. faecalis ATCC29121: value in bracket, 24 h at 37° C.
Procedure: (§1) Minimal inhibitory concentration (MIC) values and minimal bactericidal concentration (MBCs) values for ATC-peptides 1-9 were determined against both Gram-positive (Bacillus subtilis, Staphylococcus aureus, Enterococcus faecalis) and Gram negative (Escherichia coli, Pseudomonas aeruginosa) bacteria as well as a yeast (Candida albicans). Experiments were conducted in triplicate. For B. subtilis, compounds were tested against vegetative cells and spores, which are particularly resistant to the action of antimicrobial agents. MIC and MBCs values are shown Table 12. In addition, haemolytic properties of 1-9 were tested.
(§2) the antimicrobial performances of oligomers antimicrobial activity were determined on three Gram positive strains (Bacillus subtilis ATCC6633, Staphylococcus aureus ATCC6538 and Enterococcus faecalis ATCC29121), two Gram negative strains (Escherichia coli ATCC8739 and Pseudomonas aeruginosa ATCC9027) and one fungal strain (Candida albicans ATCC10231). Each bacterial strain was allowed to grow overnight on Trypto-Caseine-Soja agar (TSA, Difco) at 37° C., C. albicans was allowed to grow 48 h on a sabouraud medium (Difco) at 20-25° C. A fresh suspension at 10^8 CFU·mL^−1 was then prepared by inoculating the micro-organisms in a Tryptone-Sel solution. Concentration was monitored by measuring transmitted light at 620 nm or with the Mac Farland turbidity standard (Mac Farland=0.5≈10^8 CFU·mL^−1). Each suspension was then diluted in a doubly strong Mueller-Hinton (MH, Difco) broth to […]. Two-fold serial dilutions (100 μL) of oligomers in sterile water (pH adjusted between 7.4 and 7.7 with HCl and NaOH solutions) were mixed with microbial inoculum (100 μL) in NUNC sterile clear polystyrene flat-bottom 96-well plates. A 1/1 v/v oligomer solution/water mixture was used a negative control and a 1/1 vv water/microbial inoculum mixture was used a positive control. Plates were then incubated 24 h at 37° C. for bacteria and 48 h at 25° C. for C. albicans. Minimum Inhibitory Concentration (MIC) was determined as the lowest concentration inhibiting the growth of each micro-organism. […] Minimum Bactericidal Concentration (MBC) was determined as the lowest concentration that prevent the growth of more than one colony. Each assay was performed in a triple duplicate for each strain.

[2] = test system: Bacillus subtilis ATCC6633; type: cell-based; settings: for Minimal inhibitory concentration (MIC) B. subtilis ATCC6633: ATCC6633, 24 h; for Minimal bactericidal concentration (MBC) B. subtilis ATCC6633: value in bracket, 24 h at 37° C.
Procedure: as §1, §2

[3] = test system: Candida albicans ATCC10231; type: cell-based; settings: for Minimal inhibitory concentration (MIC) C. albicans ATCC10231: ATCC10231, 48 h; for Minimal bactericidal concentration (MBC) C. albicans ATCC10231: value in bracket, 48 h at 25° C.
Procedure: as §1, §2

[4] = test system: Staphylococcus aureus ATCC6538; type: cell-based; settings: for Minimal inhibitory concentration (MIC) S. aureus ATCC6538: ATCC6538, 24 h; for Minimal bactericidal concentration (MBC) S. aureus ATCC6538: value in bracket, 24 h at 37° C.
Procedure: as §1, §2

[5] = test system: Escherichia coli ATCC8739; type: cell-based; settings: for Minimal inhibitory concentration (MIC) E. coli ATCC8739: ATCC8739, 24 h; for Minimal bactericidal concentration (MBC) E. coli ATCC8739: value in bracket, 24 h at 37° C.
Procedure: as §1, §2

[6] = test system: Pseudomonas aeruginosa ATCC9027; type: cell-based; settings: for Minimal inhibitory concentration (MIC) P. aeruginosa ATCC9027: ATCC9027, 24 h; for Minimal bactericidal concentration (MBC) P. aeruginosa ATCC9027: value in bracket, 24 h at 37° C.
Procedure: as §1, §2

[7] = Hemolytic activity; type: cell-based, Human; settings: human, human red blood cell suspension; hRBCs, 1 h at 37° C.; read-out: HD50, dose required to lyse 50% of the red blood cells
Procedure: Procedure for measurements of hemolytic activity: Human red blood cells (hRBCs) were washed multiple times with phosphate-buffered saline (PBS) until a clear supernatant was obtained. The hRBCs suspension was made in PBS with a Packed Cell Volume of 5%, Two-fold serial dilutions (50 μL) of oligomers in sterile water (pH adjusted between 7.4 and 7.7 with HCl and NaOH solutions) were mixed with hRBCs suspension (50 μL) in clear polystyrene optical-bottom 96-well plates which were filmed and incubated for 1 h at 37° C. A 1/1 vv hRBCs solution/PBS mixture was used a negative control and a 1/1 vv hRBCs solution/1% (TRIS 50 mM pH=8.0+1% SDS) mixture was used a positive control for 100% hemolysis. The mixture was then centrifuged at 1500 g for 10 min at 5° C. Next, 50 μL of the supernatant was transferred into a second plate, and the absorbance was read at 490 nm using a BioRad iMark plate reader. The hemolysis percentage was calculated by the formula % hemolysis=[Absorbance (sample)−Absorbance (negative control)]/[Absorbance (positive control)−Absorbance (negative control)]×100%. Each assay was performed in a double duplicate. Hemolytic activity was determined or estimated with the Hemolytic Concentration leading to 50% of lysis of hRBCs (HC50).

[8] = test system: E. coli; experiment: Surface electron microscopy (SEM) of bacterial morphology; type: cell-based, Escherichia coli; settings: after 60 min incubation with 8×MIC; untreated about 2.0 μm
Procedure: FIG. 18 represents electronic microscopy photos. A/, B/ and C/ SEM micrographs untreated E. coli on glass platelets. In isotonic medium the cells are long, intact and evenly shaped.
FIG. 19 represents SEM micrographs untreated E. coli after 60 min incubation with 8×MIC of 9.
Surface electron microscopy (SEM) experiments: oligomer 9 was evaluated for its impact on E. coli morphology by surface electron microscopy (SEM). In order to define the best incubation period to observed antimicrobial effects, time-kill study was conducted over 2 h incubation at 37° C. […] Significant decrease of the growth rate was observed between 40 to 60 min at 4× and 8×MIC. […] experiments were performed after 60 min contact between bacteria cells and compound 9. […] In addition, whereas there were no fragments for control untreated bacteria, numerous spherical elements whose diameters were lower than 0.1 μm were observed around bacteria, the number of which increasing with the peptide concentration. Despite some dispersion in size, such fragments, probable microsomes, were classically reported with other AMPs associated with membrane permeation and/or depolarization. [M. Hartmann, M. Berditsch J. Hawecker, F. Ardakani, D. Gerthsen, A. S. Ulrich, Antimicrob. Agents Chemother. 2010, 54, 3132-3142 b/ E. Duval, C, Zatylny, M. Laurencin, M. Baudy-Floc'h, J. Henry, Peptides 2009, 30, 1608-1612.] […]

[9] = test system: E. coli; type: cell-based, Escherichia coli; settings: 2 h
Procedure: FIG. 17 represents a graphic showing the results of a time-kill study of oligomer 9 on E. coli over 2 h incubation at 37° C.
Surface electron microscopy (SEM) experiments: oligomer 9 was evaluated for its impact on E. coli morphology by surface electron microscopy (SEM). In order to define the best incubation period to observed antimicrobial effects, time-kill study was conducted over 2 h incubation at 37° C. […] Significant decrease of the growth rate was observed between 40 to 60 min at 4× and 8×MIC. TEM experiments were performed after 60 min contact between bacteria cells and compound 9. […] In addition, whereas there were no fragments for control untreated bacteria, numerous spherical elements whose diameters were lower than 0.1 μm were observed around bacteria, the number of which increasing with the peptide concentration. Despite some dispersion in size, such fragments, probable microsomes, were classically reported with other AMPs associated with membrane permeation and/or depolarization. [M. Hartmann, M. Berditsch J. Hawecker, F. Ardakani, D. Gerthsen, A. S. Ulrich, Antimicrob. Agents Chemother. 2010, 54, 3132-3142 b/ E. Duval, C, Zatylny, M. Laurencin, M. Baudy-Floc'h, J. Henry, Peptides 2009, 30, 1608-1612.]

Minimal inhibitory concentration (MIC) E. faecalis ATCC29121 [1] [µM] | Minimal inhibitory concentration (MIC) B. subtilis ATCC6633 [2] [µM] | Minimal inhibitory concentration (MIC) C. albicans ATCC10231 [3] [µM] | Minimal inhibitory concentration (MIC) S. aureus ATCC6538 [4] [µM] | Minimal inhibitory concentration (MIC) E. coli ATCC8739 [5] [µM] | Minimal inhibitory concentration (MIC) P. aeruginosa ATCC9027 [6] [µM] | SMILES | Minimal bactericidal concentration (MBC) E. faecalis ATCC29121 [1] | Minimal bactericidal concentration (MBC) C. albicans ATCC10231 [3] | Minimal bactericidal concentration (MBC) S. aureus ATCC6538 [4] | Minimal bactericidal concentration (MBC) E. coli ATCC8739 [5] | Minimal bactericidal concentration (MBC) P. aeruginosa ATCC9027 [6] | HC50 at 1 h [7] [µM] | Minimal bactericidal concentration (MBC) B. subtilis ATCC6633 [2] | length of E. coli cells [8] [μm] | average log reduction of the viable cell count [9] [log10 cfu/ml] | average log reduction of the viable cell count [9]; 8 [log10 cfu/ml]
6.2 (≈ 13.4 µg/mL) | 1.3 (≈ 2.82 µg/mL) | 6.2 (≈ 13.4 µg/mL) | 5.2 (≈ 11.3 µg/mL) | 8.3 (≈ 18 µg/mL) | 6.2 (≈ 13.4 µg/mL) | CC(=O)N[C@@H](CCCCN)c1nc(C)sc1C(=O)N[C@@H](CC(C)C)c1nc(CCCCN)sc1C(=O)N[C@@H](C)c1nc(CC(C)C)sc1C(=O)N[C@@H](CCCCN)c1nc(C)sc1C(=O)N[C@@H](CC(C)C)c1nc(CCCCN)sc1C(=O)N[C@@H](C)c1nc(CC(C)C)sc1C(=O)N[C@@H](CCCCN)c1nc(C)sc1C(=O)N[C@@H](CC(C)C)c1nc(CCCCN)sc1C(=O)N[C@@H](C)c1nc(CC(C)C)sc1C(N)=O [Oligomer 6] | (6.2) μM | (6.2) μM | (5.2) μM | (8.3) μM | (6.2) μM | 23 | – | – | – | –
10.4 (≈ 29.9 µg/mL) | 4.2 (≈ 12.1 µg/mL) | 25 (≈ 71.8 µg/mL) | 16.7 (≈ 47.9 µg/mL) | 14.6 (≈ 41.9 µg/mL) | 14.6 (≈ 41.9 µg/mL) | CC(=O)N[C@@H](CCCCN)c1nc(C)sc1C(=O)N[C@@H](CC(C)C)c1nc(CCCCN)sc1C(=O)N[C@@H](C)c1nc(CC(C)C)sc1C(=O)N[C@@H](CCCCN)c1nc(C)sc1C(=O)N[C@@H](CC(C)C)c1nc(CCCCN)sc1C(=O)N[C@@H](C)c1nc(CC(C)C)sc1C(=O)N[C@@H](CCCCN)c1nc(C)sc1C(=O)N[C@@H](CC(C)C)c1nc(CCCCN)sc1C(=O)N[C@@H](C)c1nc(CC(C)C)sc1C(=O)N[C@@H](CCCCN)c1nc(C)sc1C(=O)N[C@@H](CC(C)C)c1nc(CCCCN)sc1C(=O)N[C@@H](C)c1nc(CC(C)C)sc1C(N)=O [Oligomer 7] | (12.5) μM | (25) μM | (25) μM | (16.5) μM | (19) μM | > 100 | (6.2) μM | – | – | –
100 (≈ 208 µg/mL) | 0.5 (≈ 1.04 µg/mL) | 9.4 (≈ 19.6 µg/mL) | 14.6 (≈ 30.4 µg/mL) | 0.8 (≈ 1.67 µg/mL) | 54 (≈ 113 µg/mL) | CC(=O)N[C@@H](CCCNC(=N)N)c1nc(C)sc1C(=O)N[C@@H](C)c1nc(CCCNC(=N)N)sc1C(=O)N[C@@H](C)c1nc(C)sc1C(=O)N[C@@H](CCCNC(=N)N)c1nc(C)sc1C(=O)N[C@@H](C)c1nc(CCCNC(=N)N)sc1C(=O)N[C@@H](C)c1nc(C)sc1C(=O)N[C@@H](CCCNC(=N)N)c1nc(C)sc1C(=O)N[C@@H](C)c1nc(CCCNC(=N)N)sc1C(=O)N[C@@H](C)c1nc(C)sc1C(N)=O [Oligomer 8] | (>100) μM | (12.5) μM | (16.5) μM | (0.8) μM | (100) μM | > 100 | (0.5) μM | – | – | –
20.8 (≈ 57.4 µg/mL) | 0.6 (≈ 1.66 µg/mL) | 6.2 (≈ 17.1 µg/mL) | 3.1 (≈ 8.55 µg/mL) | 1.8 (≈ 4.97 µg/mL) | 4.2 (≈ 11.6 µg/mL) | CC(=O)N[C@@H](CCCNC(=N)N)c1nc(C)sc1C(=O)N[C@@H](C)c1nc(CCCNC(=N)N)sc1C(=O)N[C@@H](C)c1nc(C)sc1C(=O)N[C@@H](CCCNC(=N)N)c1nc(C)sc1C(=O)N[C@@H](C)c1nc(CCCNC(=N)N)sc1C(=O)N[C@@H](C)c1nc(C)sc1C(=O)N[C@@H](CCCNC(=N)N)c1nc(C)sc1C(=O)N[C@@H](C)c1nc(CCCNC(=N)N)sc1C(=O)N[C@@H](C)c1nc(C)sc1C(=O)N[C@@H](CCCNC(=N)N)c1nc(C)sc1C(=O)N[C@@H](C)c1nc(CCCNC(=N)N)sc1C(=O)N[C@@H](C)c1nc(C)sc1C(N)=O [Oligomer 9] | (25) μM | (6.2) μM | (7.8) μM | (2.3) μM | (4.7) μM | > 100 | (0.8) μM | ≥ 1.3 | 0.95 | 4.73

— patent US20220242905A1, “MODIFIED PEPTIDES AND THEIR USE” (UNIVERSITE DE MONTPELLIER, priority 2018, published 2022)
